# Substitutions are numbered along the chain they refer to. Names may count otherwise. “Also recorded” adds a separate entry of the source. Read-outs that look alike come from different tables or passages of the source.
# T1: AtHNL (Arabidopsis thaliana, UniProt Q9LFT6)
# T1 construct: made in house; host or cells: E. coli BL21(DE3), plasmid pAtHNL (pET28a, NcoI/XhoI)
# T1 sequence (Q9LFT6 1-258): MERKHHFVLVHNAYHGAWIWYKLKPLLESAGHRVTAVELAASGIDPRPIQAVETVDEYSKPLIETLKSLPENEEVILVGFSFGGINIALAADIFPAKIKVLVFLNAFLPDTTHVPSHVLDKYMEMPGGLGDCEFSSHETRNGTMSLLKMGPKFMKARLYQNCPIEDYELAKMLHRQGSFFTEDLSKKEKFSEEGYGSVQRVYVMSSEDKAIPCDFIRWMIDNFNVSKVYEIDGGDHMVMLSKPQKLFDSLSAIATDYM
# B1: AtHNL: hydroxynitrile lyase from Arabidopsis thaliana, polypeptide of the invention, SEQ ID NO: 1 (protein, listed as Arabidopsis thaliana)
# chain: T1 sequence (Q9LFT6 1-258)
# B2: S81A: AtHNL (SEQ ID NO: 1) with point mutation S81A, catalytic triad residue exchanged (protein, listed as Arabidopsis thaliana)
# chain: T1 sequence (Q9LFT6 1-258) with S81A
# B3: D208N: AtHNL (SEQ ID NO: 1) with point mutation D208N, catalytic triad residue exchanged (protein, listed as Arabidopsis thaliana)
# chain: T1 sequence (Q9LFT6 1-258) with D208N
# B4: H236F: AtHNL (SEQ ID NO: 1) with point mutation H236F, catalytic triad residue exchanged (protein, listed as Arabidopsis thaliana)
# chain: T1 sequence (Q9LFT6 1-258) with H236F
# B5: N12T: AtHNL (SEQ ID NO: 1) with asparagine 12 exchanged for threonine, preferably as double mutation with Y14C (protein, listed as Arabidopsis thaliana)
# chain: T1 sequence (Q9LFT6 1-258) with N12T
# B6: L129W: AtHNL (SEQ ID NO: 1) with leucine 129 exchanged for tryptophan (protein, listed as Arabidopsis thaliana)
# chain: T1 sequence (Q9LFT6 1-258) with L129W
# B7: Y14C: AtHNL (SEQ ID NO: 1) with tyrosine 14 exchanged for cysteine (protein, listed as Arabidopsis thaliana)
# chain: T1 sequence (Q9LFT6 1-258) with Y14C
# Key:
# Assay type in all cases: biochemical
# AtHNL [1] = molecular target: T1, AtHNL
# AtHNL [2] = molecular target: T1, AtHNL; conditions: pH 5
# AtHNL [3] = molecular target: T1, AtHNL; test: Cleavage of mandelonitrile, determination of liberated benzaldehyde (cell test); conditions: cleavage reaction of cyanohydrin by AtHNL, citrate-phosphate buffer pH 5
# Procedure: Ia) Cleavage of Mandelonitrile(=Benzaldehyde Cyanohydrin), Determination of Liberated Benzaldehyde (Cell Test):
# The protocol employed was based on the test described by Bauer et al in 1999 and was only modified slightly. 700 μl of citrate-phosphate buffer, pH 5 (48.5 mL 0.1M citric acid, 51.5 mL 0.2 M dipotassium hydrogen phosphate, qsp 100 ml water) was mixed with 100 μl of enzyme sample in a quartz glass cell and the reaction was started with 200 μl of mandelonitrile solution (60 mM in citrate-phosphate buffer, pH 3.5 (1.82 mL 0.1 M citric acid, 1.06 mL 0.1 M disodium hydrogen phosphate, qsp 100 mL water). The increase in the extinction at 280 nm was monitored for 2 min. It was proportional to the benzaldehyde concentration in the sample. Self-degradation of the cyanohydrin was determined in a control sample without enzyme and subtracted from the values measured for the enzyme sample. In order to determine the remaining activity in the course of the stability tests described in Example 5d, a slightly altered procedure was used: 870 μl of citrate buffer (50 mM, pH 4) was supplemented with 30 μl of enzyme sample, the reaction was started by adding 100 μl of mandelonitrile (60 mM in 50 mM of citrate buffer, pH 2) and monitored for 2 minutes at 280 nm. […] The enzyme activity is, however, much lower with this procedure.
# [4] = HNL activity test of cloned and expressed Arabidopsis proteins resembling MeHNL; conditions: cloned, expressed heterologously in E. coli; listed as At5g10300
# Description: The Arabidopsis thaliana plant (mouse-ear cress) is a model organism (accessible genome, short generation period) and thus has been comprehensively investigated. The genome has been completely sequenced and recorded in sequence databases. Examples of such databases are, for example, the “Genbank” as a collection of all published sequences, or TAIR as a database restricted to a single organism (in this case Arabidopsis). Because of the great strides made in molecular biology, many new sequences are being input into the appropriate databases than can be individually assessed and described. Thus, until now genes which have been identified as true genes but which have not been further investigated have automatically been ascribed types by appropriate computer algorithms because of their similarities to known sequences. Whether the function stated in this description is true, however, must be individually ascertained for each protein. […] The increase in the extinction at 280 nm was monitored for 2 min. […] Self-degradation of the cyanohydrin was determined in a control sample without enzyme and subtracted from the values measured for the enzyme sample. […]
# [5] = Activity of AtHNL preparations from fed batch fermentation
# [6] = Demonstration of stereoselectivity (chiral gas chromatography and cleavage test with enantiomerically pure benzaldehyde cyanohydrin)
# [7] = Point mutations in SEQ ID NO: 1 (AtHNL variants)
# [8] = after Q-Sepharose, desalting and lyophilization
Molecule,ee (R) (%) (AtHNL [1]),Transformation (%) (AtHNL [1]; pH 4),Transformation (%) (AtHNL [1]),further results
CCC(C)=O [2-butanone],0,>95,–,–
CCCCCC(C)=O [2-heptanone],9,9,–,–
CCCCC(C)=O [2-hexanone],0,–,–,–
CCCCCCC(C)=O [2-octanone],–,0,–,–
CCCC(C)=O [2-pentanone],0,>95,–,–
O=Cc1cccc(Oc2ccccc2)c1 [3-phenoxybenzaldehyde],78,73,–,–
O=Cc1ccc(Cl)cc1 [4-chlorobenzaldehyde],95,98,–,–
COc1ccc(C=O)cc1 [4-methoxybenzaldehyde],–,22.6,–,–
CC(O)C#N (centres unmarked) [Acetaldehyde cyanohydrin],–,–,–,"Specify activity (U/mg), HCN-Test (see Ib above) (AtHNL [2]): <0.05 U/mg"
N#CC(O)c1ccccc1 (centres unmarked) [Benzaldehyde cyanohydrin],–,–,–,"Specify activity (U/mg), Benzaldehyde Test (see Ia above) (AtHNL [3]): 12.5 U/mg"
O=Cc1ccccc1 [Benzaldehyde],–,>99.9,–,–
CC(=O)CCc1ccccc1 [Benzyl acetone],40,9,–,–
CCCCCCC=O [Heptanal],>80,>99.9,–,–
CCCCCC=O [Hexanal],–,98,–,–
CCCCCCCC=O [Octanal],–,89,–,–
O=CCc1ccccc1 [Phenylacetaldehyde],71,90,–,–
CCC(O)C#N (centres unmarked) [Propionaldehyde cyanohydrin],–,–,–,"Specify activity (U/mg), HCN-Test (see Ib above) (AtHNL [2]): <0.05 U/mg"
C=CCc1ccccc1 [compound 17],96,–,97,–
O=CCCc1ccccc1 [compound 18],68,–,99,–

Molecule,ee (R) (%) (AtHNL [1]),Transformation (%) (AtHNL [1]; pH 4),Transformation (%) (AtHNL [1]),further results
O=Cc1cccs1 [compound 19],–,–,68,–
CCCCCC=O [compound 20],98,–,99,–
CCCCCCCCCC=O [compound 21],>95,–,56,–
CCC/C=C/C=O [compound 22],–,–,53,–
CC(=O)CCC=C(C)C [compound 23],–,–,0,–
CCCCC(C)=O [compound 24],95,–,48,–
CCCCCCCCC(C)=O [compound 25],–,–,2,–
O=C1CCCCC1 [compound 26],–,–,94,–
CC(=O)c1ccccc1 [compound 27],–,–,7,–
CC(=O)c1ccccc1F [compound 28],95,–,8,–
CC(=O)CCc1ccccc1 [compound 29],–,–,1,–
B1,–,–,–,"HNL activity (Remarks/misc) [4]: high activity; also recorded: HNL activity (a poly-; activity per lyophilisate [5, 8]: 2.5 U/mg of lyophilisate; specific activity [5, 8]: approximately 40 U/mg protein; specific activity ([5]; unrefined extract): 13.3 U/mg; volumetric activity ([5]; unrefined extract): approx 800 U/ml; stereoselectivity [6]: Only the (R) enantiomer formed or was transformed"
B2,–,–,–,activity of the polypeptide after exchange of catalytic triad residues [7]: no longer exhibited any activity
B3,–,–,–,activity of the polypeptide after exchange of catalytic triad residues [7]: no longer exhibited any activity
B4,–,–,–,activity of the polypeptide after exchange of catalytic triad residues [7]: no longer exhibited any activity
B5,–,–,–,effect of the point mutation on substrate spectrum / enantioselectivity [7]: broadening of substrate spectrum to ketones
B6,–,–,–,effect of the point mutation on substrate spectrum / enantioselectivity [7]: reversal of enantioselectivity
B7,–,–,–,effect of the point mutation on substrate spectrum / enantioselectivity [7]: reversal of enantioselectivity
